Test results from patent US11859203B2, “Cell culture methods” (UCB BIOPHARMA SRL, priority 2017, dated 2024).

Key:
Format in all cases: cell-based, Chinese Hamster
[1] = tested on: CHO-DG44 cells from cell line 1; experiment: Fed-batch 2 L bioreactor culture with cysteine/cystine derivatives, cell line 1 (Example 3); conditions: 50% replacement, cell line 1, 2 L bioreactor
Method: (§1) The ability of cysteine/cystine derivatives to reduce color and acidic species of a recombinant protein preparation produced in cell culture was evaluated in a bioreactor for two cell lines. This model is more representative of the large-scale production than the shake flask due to the geometry and additional control. CHO-DG44 cells from cell line 1 and 2 were inoculated in 1300 mL of basal media at a seeding density of 0.35×10^6 cells/mL in 2 L stirred bioreactor (Sartorius). The cells were cultivated during 14 days in fed-batch mode. The cell cultures were agitated at 280 rpm and the DO was maintained at 40%. The cell culture was maintained at pH 7.0±0.2 with an automatic CO2 sparging regulation. Cells were cultured in a fed-batch mode with bolus addition of Feed every day of culture. The basal media contained 0.04 mmol/L of cysteine+0.38 mmol/L of cystine. The Feed contained 153.3 mmol/L of cystine. Over the entire 14-day production phase, the total volume of Feed added corresponded to 5.7% (w/w) of the culture start volume for cell line 1 and to 3.1% (w/w) of the culture start volume for cell line 2.
(§2) The cysteine present in the Feed was replaced by different cysteine- and cystine derivatives at different percentages as presented in Table 2. A condition with only 50% of cysteine was added to test whether the improvements observed were due to the cysteine derivative or to the reduction of cysteine only. Osmolality was daily monitored using an osmometer from Advanced instrument. Off line pH, dissolved O2 and dissolved CO2 were daily monitored using a Nova Biomedical Phox (Nova biomedical). Metabolites concentrations were daily determined using a CedexBioHT system (Roche). Viable cell concentration and cell viability were measured daily using a ViCell automated cell counter (Beckman Coulter). The cell culture fluid was collected daily by centrifuging 1 mL of cell culture fluid for determination of antibody titer by HPLC prot A (waters) or using protein-L Octet measurement (Pall). At the end of the 14 days of culture, the cell culture fluid was harvested by centrifugation. The supernatant was then purified using a protein-A or L affinity chromatography (GE). The protein-A or L eluates were used for the molecular weight determination using UPLC size exclusion (Waters) and for the charge variants determination using isocapillary focusing (PROTEINSIMPLE iCE3). Another part of the protein-A eluates (only from cell line 1) was concentrated to 40 mg/mL using Amicon centricon centrifugal filter devices (Millipore). Color intensity of the concentrated antibody composition was measured in the concentrated protein A eluates using a spectrophotometer by transmission (UltrascanPro) and compared to the CIE (commission internationale de l'éclairage) scale. The numerical results were normalized to the concentration of 40 mg/mL.

cell line 1 = experiment: Reproducibility in 2 L bioreactor, cell line 1, average of data sets 1 and 2 (Example 4); conditions: 50% replacement
Method: as §1, §2
The reproducibility of the results was evaluated in bioreactor with cell line 1. The experiments of Example 3 were repeated with an additional control and a bioreactor with 50% S-sulfocysteine 50% Cysteine Feed. The data from the two experiments were analyzed to confirm the effect previously observed with cysteine/cystine derivatives.

[2] = tested on: CHO-DG44 cells producing a multispecific antibody derivative (cell line 2); experiment: Fed-batch shake flask culture with cysteine/cystine derivatives, cell line 2 (Example 2); conditions: 50% replacement; day 14; cell line 2, shake flask
Method: The ability of cysteine/cystine derivatives to reduce color and acidic species of a recombinant protein preparation in cell culture was evaluated using another antibody-producing cell line, cell line 2. For this experiment a scale-down model in shake flask was used. CHO-DG44 cells producing a multispecific antibody derivative were inoculated in 100 mL of basal media at a seeding density of 0.35×10^6 cells/mL. The shake flask vessels were 250 mL shake flasks (corning) disposed in an agitated incubator (Infors) protected from light. The cells were cultivated for 14 days at 36.8° C. with 80% of humidity. The cell cultures were agitated at 140 rpm at the beginning of the process. The agitation was increased during the process progressively to reach 250 rpm to maintain a DO % at 40% in the shake flask, as is it done in the 2 L bioreactor process. […]
The cysteine present in the Feed was replaced by different cysteine and cystine derivatives with a replacement ratio of 50% equimolar (Table 1). […] Osmolality was daily monitored using an osmometer from Advanced instrument. Off line pH, dissolved O2 and dissolved CO2 were daily monitored using a Nova Biomedical Phox (Nova biomedical). Metabolites concentrations were daily determined using a CedexBioHT system (Roche). Viable cell concentration and cell viability were measured daily using a ViCell automated cell counter (Beckman Coulter). […]

[3] = tested on: CHO-DG44 cells from cell line 2; experiment: Fed-batch 2 L bioreactor culture with cysteine/cystine derivatives, cell line 2 (Example 3); conditions: 50% replacement; cell line 2, 2 L bioreactor
Method: as §1, §2

[4] = tested on: CHO-DG44 cells from cell line 1; experiment: Fed-batch Ambr15 mini bioreactor culture, different replacement levels, cell line 1 (Example 5); conditions: at optimum, around 70% of replacement
Method: We tested different concentrations of cysteine/cystine derivatives on the improvement on the APG level of a recombinant protein preparation produced in cell culture cultivated in mini bioreactors. CHO-DG44 cells from cell line 1 were inoculated in 12 mL basal media at a seeding density of 0.35×10^6 cells/mL in Ambr15 bioreactors (Sartorius). The cells were cultivated in fed-batch mode during 14 days. The DO was maintained at 40% and the pH was maintained 7.0±0.2 with an automatic CO2 sparging regulation. Viable cell concentration and cell viability were measured daily using a ViCell automated cell counter (Beckman Coulter). Cells were cultured in a fed-batch mode with a daily bolus addition of Feed. The basal media contained 0.04 mmol/L cysteine+0.38 mmol/L cystine. The Feed contained 153.3 mmol/L of cystine. Over the entire 14-day production phase, the total volume of added Feed corresponded to 4.7% (v/v) of the culture start volume.
Different percentages of cysteine present in the Feed was replaced by different cysteine- and cystine analogs. Table 4 provides an overview of different percentages tested and their equivalence in molar ratio relative to cysteine or cystine. E.g. for N-Acetyl-L-cysteine 10% means that 10% molar amount of cysteine equivalent has been replaced by 10% molar amount of N-Acetyl-L-cysteine; for N,N′-Diacetyl-L-cystine, 10% means that 10 molar amount of cystine equivalent has been replaced with 10% molar amount of N,N′-Diacetyl-L-cystine. At the end of the 14 days of culture, the cell culture fluid was harvested by centrifugation. The supernatant was then purified using a protein-A affinity chromatography (GE). The protein-A eluates were used for the charge variants determination using isocapillary focusing (PROTEINSIMPLE iCE3).

CC(=O)N[C@@H](CS)C(=O)O [N-acetyl-L-cysteine, N-Acetyl-L-cysteine]
decrease of acidic species level compared to control [1]: 10%
main species level [1]: increase of main species
decrease of the b value level (color intensity) compared to control ([1]; 40 mg/mL): 13%
specific productivity (cell line 1; compared to 50% cysteine feed): did not impact the productivity
average decrease of acidic species level compared to control (cell line 1; data sets 1 and 2 average): 10%
average decrease of b value level (color intensity) compared to control (cell line 1; data sets 1 and 2 average): 13%
decrease in antibody titer compared to the controls average (cell line 1; data sets 1 and 2 average): 10%
main species level (cell line 1; data sets 1 and 2 average): increase of main species
cell growth (VCC) compared to control (cell line 1; from day 9, 2 L bioreactor, data sets 1 and 2): higher VCCs than the control conditions
decrease on acidic variants level compared to control [2]: 14.5%
decrease of acidic species level compared to control [3]: 13%
main species level [3]: increase of main species
decrease of acidic species [4]: 12.5%
